Blank lines part the entries; values can stand above or below the compound they belong to.
How the values were obtained:
[1] = tested on: uterine proliferation; test: Uterine proliferation in nude mice, 28 days subcutaneous osmotic pump; type: in vivo, CD-1/Nude female mice; conditions: subcutaneous Alzet pump, 2 mg/200 μL for 6, 360 μg/200 μL for estradiol
Protocol: (§1) The effects of 6 were tested in vivo on breast cancer tumor formation and uterine proliferation. CD-1/Nude female mice, 40-50 days old at time of grafting were selected. Each mouse received 2 grafts per kidney, 4 grafts total with MCF-7 breast cancer cells in 25 μL collagen per graft. Compound 6 was delivered subcutaneously with a Alzet Osmotic pump filled with 200 μL of 6 for 28 days. […] At the end of 28 days of treatment, all grafts and uteri were isolated, pictures taken, weighed, and fixed in formalin.

[2] = target: T1, ERβ (Homo sapiens, UniProt Q92731); test: Repression of TNF-α activation of TNF-RE tkLuc in U2OS cells with ERβ; type: cell-based; set-up: expressed in transfected cells; host or cells: U2OS (human osteosarcoma)
T1 sequence (Q92731 whole entry): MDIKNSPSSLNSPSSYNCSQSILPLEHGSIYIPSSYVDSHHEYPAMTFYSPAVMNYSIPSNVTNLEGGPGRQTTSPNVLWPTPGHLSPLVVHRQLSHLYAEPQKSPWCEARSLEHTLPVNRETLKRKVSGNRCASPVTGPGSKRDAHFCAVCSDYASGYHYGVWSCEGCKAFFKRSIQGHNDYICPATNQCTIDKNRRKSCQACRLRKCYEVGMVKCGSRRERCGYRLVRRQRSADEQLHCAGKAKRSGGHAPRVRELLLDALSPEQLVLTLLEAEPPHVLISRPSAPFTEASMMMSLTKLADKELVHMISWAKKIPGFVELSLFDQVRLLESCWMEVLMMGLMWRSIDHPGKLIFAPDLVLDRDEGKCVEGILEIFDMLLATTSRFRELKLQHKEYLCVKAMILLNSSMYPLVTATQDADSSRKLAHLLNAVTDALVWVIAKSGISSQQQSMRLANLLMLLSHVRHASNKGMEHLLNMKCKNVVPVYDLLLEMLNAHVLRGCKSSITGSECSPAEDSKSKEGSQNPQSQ

[3] = tested on: MCF-7 breast cancer cells; test: MCF-7 kidney capsule graft tumor formation in nude mice; type: in vivo, CD-1/Nude female mice; conditions: MCF-7 grafts, 28 days, subcutaneous Alzet pump, 2 mg/200 μL for 6, 360 μg/200 μL for estradiol
Protocol: as §1

[4] = target: T2, ERα (Homo sapiens, UniProt P03372); test: ERE-tk-Luc luciferase transient transfection assay in U2OS cells with ERα; type: cell-based; conditions: ERα expression vector
T2 construct: expressed in transfected cells; host or cells: U2OS (human osteosarcoma)
T2 sequence (P03372 1-595): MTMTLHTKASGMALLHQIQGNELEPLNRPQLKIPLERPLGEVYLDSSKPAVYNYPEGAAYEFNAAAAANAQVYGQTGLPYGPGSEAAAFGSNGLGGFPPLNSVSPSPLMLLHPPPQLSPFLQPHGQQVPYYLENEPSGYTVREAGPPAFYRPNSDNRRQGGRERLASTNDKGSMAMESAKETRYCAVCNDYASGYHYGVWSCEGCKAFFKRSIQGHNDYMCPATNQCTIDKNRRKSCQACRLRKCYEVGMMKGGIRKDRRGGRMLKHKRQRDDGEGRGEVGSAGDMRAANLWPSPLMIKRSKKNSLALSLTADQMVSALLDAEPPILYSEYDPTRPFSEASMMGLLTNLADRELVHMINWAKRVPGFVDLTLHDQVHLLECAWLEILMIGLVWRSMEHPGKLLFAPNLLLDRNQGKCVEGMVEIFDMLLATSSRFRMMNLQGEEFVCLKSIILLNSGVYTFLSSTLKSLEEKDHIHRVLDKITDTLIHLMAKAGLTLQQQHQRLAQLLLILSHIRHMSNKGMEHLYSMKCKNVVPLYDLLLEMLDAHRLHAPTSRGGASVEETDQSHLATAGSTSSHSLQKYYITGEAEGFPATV

[5] = women at high risk for breast cancer; cited from earlier work
[6] = five years of therapy; cited from earlier work
[7] = target: T1, ERβ; test: ERE-tk-Luc luciferase transient transfection assay in U2OS cells with ERβ
[8] = target: T1, ERβ; test: ER binding curves (ERβ compared with ERα)

Compound: O=C1c2c(O)c(O)c(O)c(O)c2C(=O)c2c(O)c(O)c(O)c(O)c21 [compound 6, octahydroxyanthraquinone]
- tumor formation / proliferation in kidney capsule grafts as compared to control [3]: does not increase breast cancer tumor formation
- tumor formation / proliferation in kidney capsule grafts as compared to control ([3]; listed as octahydroxyanthraquinone): suppresses tumor proliferation
- activation of ERE-tk-Luc in the presence of ERα [4]: no effect on ERα

Compound: CC/C(=C(\c1ccccc1)c1ccc(OCCN(C)C)cc1)c1ccccc1 [tamoxifen]
- reduction of the risk of primary invasive breast cancer [5]: 49%
- reduction of mortality from breast cancer [6]: 22%
- reduction of the risk of recurrences [6]: 42%

Compound: emodin [compound 1]
- repression of TNF-α activation of TNF-RE in the presence of ERβ [2]: produced repression
- ERβ-activation of ERE-tk-luc in the presence of compound and raloxifene ([7]; listed as Emodin): attenuated
- ERβ-activation of ERE-tk-luc in the presence of compound and raloxifene ([7]; listed as emodin): repressed
- ERβ-activation of ERE-tk-luc in the presence of compound and tamoxifen ([7]; listed as Emodin): attenuated
- ERβ-activation of ERE-tk-luc in the presence of compound and tamoxifen ([7]; listed as emodin): repressed
- ERβ-binding curve as compared to the ERα-binding curve [8]: very similar

Now from value to compound, other results behind:

- repression of TNF-α activity on ERβ ([2]; data not shown): 100%
Compound: C[C@]12CC[C@@H]3c4ccc(O)cc4CC[C@H]3[C@@H]1CC[C@@H]2O [estradiol, reference compound]
- uterine proliferation as compared to control [1]: stimulates uterine proliferation

- repression of TNF-α activation of TNF-RE in the presence of ERβ [2]: produced repression
- ERβ-activation of ERE-tk-luc in the presence of compound and raloxifene [7]: attenuated
- ERβ-activation of ERE-tk-luc in the presence of compound and tamoxifen [7]: attenuated
Compound: aloe-emodin [compound 2]

— patent publication US20090312437A1, “Anthraquinones and Analogs from Rhuem palmatum for Treatment of Estrogen Receptor Beta-Mediated Conditions” (Bionovo, Inc., A Delaware Corporation, priority 2008, published 2009)
